# Target: Active human KLK7 (SCCE) (Homo sapiens (Human), UniProt P49862)
# Assay: KLK7 Inhibitor Test
# Assay type: biochemical
# Settings: substrate MeO-Suc-Arg-Pro-Tyr-pNA, pH 7.2, 37° C., absorbance at 405 nm
# Experimental: KLK7 Inhibitor Test Substrate:(MeO-Suc-[…]), acetate salt, Peptide international, lot #906841, previously named S-2586 Enzyme: […] Buffer: 10 mM NaPhospate, 0.5 M NaCl, pH 7.2 […] 10 μl of substance in DMSO was added to wells giving final concentrations of 20 μ[…], and 0.15625 μM. 40 μl of active KLK7 (SCCE) (diluted to 12.5 μg/ml in activity buffer) was added all wells except blank to which activity buffer was added. […] The mean value V of each sample was calculated (n=2 for the substances and n=4 for the control). From the values of V the % of total activity was calculated as (Vinhibitor/Vcontrol (no inhibitor))×100. Plotting and calculation was then done in originPro. % of total activity (y) was plotted vs. log [inhibitor] (log x) and a function of dose response y=A1+(A2-A1)/(1+10^((LOG(x0)-x)*p)) where A1=Bottom platue, A2=Top platue, x0=EC50 and p=Hill slope was fitted to the curve. […] The IC50 values were used to identify KLK7 inhibitors according to the invention.
# Sequence of Active human KLK7 (SCCE) (P49862 30-253): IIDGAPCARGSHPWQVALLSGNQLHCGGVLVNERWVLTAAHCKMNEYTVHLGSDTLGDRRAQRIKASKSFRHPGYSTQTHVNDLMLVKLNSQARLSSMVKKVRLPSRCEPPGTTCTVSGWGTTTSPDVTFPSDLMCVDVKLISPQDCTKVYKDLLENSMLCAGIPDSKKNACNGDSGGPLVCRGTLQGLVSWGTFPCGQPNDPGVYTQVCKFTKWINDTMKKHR
row,Structure (SMILES),IC50 [nM]
1,CC(OC(=O)C(c1ccccc1)c1ccccc1)C(=O)Nc1ccc(F)cc1 (stereo not shown) [Compound 63],1620
2,"COc1ccc(NC(=O)COC(=O)C(NC(=O)c2ccccc2)c2ccccc2)cc1 (stereo not shown) [Compound 59, [2-(4-methoxyanilino)-2-oxo-ethyl] 2-benzamido-2-phenyl-acetate]",1230
3,"CCC(OC(=O)C(c1ccccc1)c1ccccc1)C(=O)Nc1ccc(OC)cc1 (stereo not shown) [Compound 43, 1-[(4-methoxyphenyl)carbamoyl]propyl 2,2-diphenylacetate]",630
4,CCC(OC(=O)C(CC(C)C)NC(=O)c1ccccc1)C(=O)Nc1cc(C)on1 (stereo not shown) [Compound 89],9100
5,COc1ccc(CC(=O)OCC(=O)Nc2ccc(OC)cc2)cc1 [Compound 68],2310
6,O=C(COC(=O)CCC1CCCC1)Nc1ccc(F)cc1 [Compound 51],830
7,O=C(COC(=O)CCC1CCCC1)Nc1ccccc1 [Compound 55],1110
8,"CCC(OC(=O)Cc1ccc(OC)cc1)C(=O)Nc1cc(C)on1 (stereo not shown) [Compound 23, 1-[(5-methylisoxazol-3-yl)carbamoyl]propyl 2-(4-methoxyphenyl)acetate]",270
9,COc1ccc(CC(=O)OCC(=O)Nc2ccccc2)cc1 [Compound 77],3890
10,CCCCC(OC(=O)C(c1ccccc1)c1ccccc1)C(=O)Nc1cc(C)on1 (stereo not shown) [Compound 27],330
11,"CCC(OC(=O)Cc1ccc(Cl)cc1)C(=O)Nc1ccc(OC)cc1 (stereo not shown) [Compound 6, 1-[(4-methoxyphenyl)carbamoyl]propyl 2-(4-chlorophenyl)acetate]",120
12,"COc1ccc(NC(=O)C(OC(=O)C(NC(=O)c2ccccc2)c2ccccc2)C(C)C)cc1 (stereo not shown) [Compound 95, [1-[(4-methoxyphenyl)carbamoyl]-2-methyl-propyl] 2-benzamido-2-phenyl-acetate]",6300
13,"CC(OC(=O)C(NC(=O)c1ccccc1)c1ccccc1)C(=O)NCc1ccccc1 (stereo not shown) [Compound 83, [2-(benzylamino)-1-methyl-2-oxo-ethyl] 2-benzamido-2-phenyl-acetate]",5890
14,"CCC(OC(=O)C(c1ccccc1)c1ccccc1)C(=O)Nc1ccccc1 (stereo not shown) [Compound 48, 1-(phenylcarbamoyl)propyl 2,2-diphenylacetate]",760
15,COc1ccc(NC(=O)COC(=O)CCC2CCCC2)cc1 [Compound 46],690
16,"COc1ccc(CC(=O)OC(C(=O)Nc2cc(C)on2)c2ccccc2)cc1 (stereo not shown) [Compound 36, [2-[(5-methylisoxazol-3-yl)amino]-2-oxo-1-phenyl-ethyl] 2-(4-methoxyphenyl)acetate]",430
17,"CC(OC(=O)CCC1CCCC1)C(=O)Nc1ccccc1 (stereo not shown) [Compound 31, (2-anilino-1-methyl-2-oxo-ethyl) 3-cyclopentylpropanoate]",370
18,"COc1ccc(NC(=O)C(C)OC(=O)C(NC(=O)c2ccccc2)c2ccccc2)cc1 (stereo not shown) [Compound 71, [2-(4-methoxyanilino)-1-methyl-2-oxo-ethyl] 2-benzamido-2-phenyl-acetate]",2760
19,Cc1cc(NC(=O)COC(=O)Cc2ccc(Cl)cc2)no1 [Compound 73],2900
20,COc1ccc(NC(=O)COC(=O)C(c2ccccc2)c2ccccc2)cc1 [Compound 87],7390
21,CC(OC(=O)C(c1ccccc1)c1ccccc1)C(=O)Nc1ccccc1 (stereo not shown) [Compound 53],1100
22,COc1ccc(CC(=O)OC(C)C(=O)Nc2ccccc2)cc1 (stereo not shown) [Compound 21],260

row,Structure (SMILES),IC50 [nM]
1,COc1ccc(CC(=O)OCC(=O)Nc2cc(C)on2)cc1 [Compound 74],3050
2,COc1ccc(CC(=O)OC(C(=O)Nc2ccc(F)cc2)c2ccccc2)cc1 (stereo not shown) [Compound 56],1170
3,"Cc1cc(NC(=O)C(OC(=O)C(NC(=O)c2ccccc2)c2ccccc2)C(C)C)no1 (stereo not shown) [Compound 75, [2-methyl-1-[(5-methylisoxazol-3-yl)carbamoyl]propyl] 2-benzamido-2-phenyl-acetate]",3260
4,"O=C(Cc1ccc(Cl)cc1)OC(C(=O)Nc1ccccc1)c1ccccc1 (stereo not shown) [Compound 32, (2-anilino-2-oxo-1-phenyl-ethyl) 2-(4-chlorophenyl)acetate]",380
5,COc1ccc(CC(=O)OC(C)C(=O)Nc2ccc(F)cc2)cc1 (stereo not shown) [Compound 42],590
6,"COc1ccc(NC(=O)C(OC(=O)Cc2ccc(Cl)cc2)c2ccccc2)cc1 (stereo not shown) [Compound 13, [2-(4-methoxyanilino)-2-oxo-1-phenyl-ethyl] 2-(4-chlorophenyl)acetate]",170
7,"COc1ccc(NC(=O)C(C)OC(=O)Cc2ccc(Cl)cc2)cc1 (stereo not shown) [Compound 4, [2-(4-methoxyanilino)-1-methyl-2-oxo-ethyl] 2-(4-chlorophenyl)acetate]",80
8,CC(OC(=O)CCC1CCCC1)C(=O)Nc1ccc(F)cc1 (stereo not shown) [Compound 22],260
9,"Cc1cc(NC(=O)C(OC(=O)C(NC(=O)c2ccccc2)c2ccccc2)c2ccccc2)no1 (stereo not shown) [Compound 49, [2-[(5-methylisoxazol-3-yl)amino]-2-oxo-1-phenyl-ethyl] 2-benzamido-2-phenyl-acetate]",780
10,"Cc1cc(NC(=O)COC(=O)Cc2ccc(Cl)cc2)no1 [Compound 81, [2-[(5-methylisoxazol-3-yl)amino]-2-oxo-ethyl] 2-(4-chlorophenyl)acetate]",5000
11,"CCC(OC(=O)Cc1ccc(OC)cc1)C(=O)Nc1ccc(OC)cc1 (stereo not shown) [Compound 24, 1-[(4-methoxyphenyl)carbamoyl]propyl 2-(4-methoxyphenyl)acetate]",280
12,CCC(OC(=O)C(c1ccccc1)c1ccccc1)C(=O)Nc1cc(C)on1 (stereo not shown) [Compound 33],390
13,"CCC(OC(=O)CCC1CCCC1)C(=O)Nc1cc(C)on1 (stereo not shown) [Compound 16, 1-[(5-methylisoxazol-3-yl)carbamoyl]propyl 3-cyclopentylpropanoate]",190
14,"Cc1cc(NC(=O)C(C)OC(=O)C(NC(=O)c2ccccc2)c2ccccc2)no1 (stereo not shown) [Compound 52, [1-methyl-2-[(5-methylisoxazol-3-yl)amino]-2-oxo-ethyl] 2-benzamido-2-phenyl-acetate]",950
15,"CC(C)C(OC(=O)Cc1ccc(Cl)cc1)C(=O)Nc1ccccc1 (stereo not shown) [Compound 91, [2-methyl-1-(phenylcarbamoyl)propyl] 2-(4-chlorophenyl)acetate]",4100
16,"COc1ccc(CC(=O)OC(C(=O)Nc2ccccc2)C(C)C)cc1 (stereo not shown) [Compound 94, [2-methyl-1-(phenylcarbamoyl)propyl] 2-(4-methoxyphenyl)acetate]",3600
17,"COc1ccc(CC(=O)OC(C)C(=O)Nc2cc(C)on2)cc1 (stereo not shown) [Compound 7, [1-methyl-2-[(5-methylisoxazol-3-yl)amino]-2-oxo-ethyl] 2-(4-methoxyphenyl) acetate]",130
18,"CCC(OC(=O)CCC1CCCC1)C(=O)Nc1ccc(F)cc1 (stereo not shown) [Compound 25, 1-[(4-fluorophenyl)carbamoyl]propyl 3-cyclopentylpropanoate]",310
19,"CCC(OC(=O)Cc1ccc(OC)cc1)C(=O)Nc1cc(C)on1 (stereo not shown) [Compound 12, 1-[(5-methylisoxazol-3-yl)carbamoyl]propyl 2-(4-methoxyphenyl) acetate]",150
20,"COc1ccc(NC(=O)C(OC(=O)C(c2ccccc2)c2ccccc2)c2ccccc2)cc1 (stereo not shown) [Compound 78, [2-(4-methoxyanilino)-2-oxo-1-phenyl-ethyl] 2,2-diphenylacetate]",4330
21,CC(OC(=O)Cc1ccc(Cl)cc1)C(=O)Nc1ccccc1 (stereo not shown) [Compound 5],90
